The values that follow come from article PMC12384096, “TabsPBP2, a Pheromone-Binding Protein Highly Expressed in Male Antennae of Tuta absoluta, Binds Sex Pheromones and Tomato Volatiles” (Biomolecules, 2025).

SMILES strings stand for the structures.

A word on the IC50: it is the concentration that gives 50% inhibition. A lower IC50 goes with greater potency. A word on the Ki: it is a dissociation constant, usually derived from enzyme kinetics or from competition with a known ligand.

The target of one experiment is TabsPBP2. As to the kind of experiment: Competitive fluorescence binding assay with 1-NPN probe. Further details: species or system Tuta absoluta. The conditions noted are these: competitive displacement of 1-NPN (2 µM), 2 μM TabsPBP2, pH 7.4; for Ki: calculated from IC50. The protocol:
Fluorescence binding assays were performed on a Cary Eclipse Fluorescence Spectrophotometer (Agilent Technologies, Palo Alto, CA, USA) to quantify TabsPBP2’s binding affinity for sex pheromones and tomato volatiles. Using n-phenyl-1-naphthylamine (1-NPN) as a fluorescent probe (1 mM in methanol), 2 μM TabsPBP2 (in 50 mM Tris-HCl, pH 7.4) were titrated with 1-NPN (2–16 µM). Fluorescence was excited at 337 nm with emission scanned from 350 and 500 nm. Ligand binding affinities were measured via competitive assays with 1-NPN (2 µM). Titration ranges: 0.5–4 μM (sex pheromones) and 2–50 μM (tomato volatiles). The binding constant (K1-NPN) for 1-NPN was calculated, followed by calculation of the dissociation constant (Ki) from IC50 values using the equation: Ki = [IC50]/(1 + [1-NPN]/K1-NPN), where [1-NPN] represents the free concentration of 1-NPN.

The next experiment concerns T. absoluta females. Details: method as in PMID 29404818. Conditions: cited from earlier work.
The next experiment relates to adult T. absoluta. Further details: method as in doi:10.1127/entomologia/2024/2399. The conditions noted are these: cited from earlier work.

With `CC1=CC2C(CC1)C2(C)C` (stereo not shown) [2-carene, 2-Carene], on TabsPBP2, the IC50 was found to be 7.47 ± 1.2 µM and the inhibitory constant (Ki) is 5.5 ± 0.92 µM.
`CC/C=C\CCO` [cis-3-hexen-l-ol, cis-3-Hexen-l-ol]: on TabsPBP2, the IC50 turned out to be 19.5 ± 2.39 µM and the Ki was 13.7 ± 1.9 µM. For the same compound, the “EAG responses in females” value in the experiment with T. absoluta females was “elicit EAG responses”.
`COC(=O)c1ccccc1O` [methyl salicylate, Methyl salicylate]: at TabsPBP2, the 50% inhibitory concentration (IC50) was 18.6 ± 1.38 µM and the inhibition constant (Ki) was 13 ± 1.23 µM. In addition, the “behavioral effect on adult T. absoluta” value in the experiment with adult T. absoluta is recorded as “repel”. The “EAG responses in females” value in the experiment with T. absoluta females is reported as “elicit EAG responses”.
In the case of `C=CC(=C)CCC=C(C)C` [myrcene, Myrcene], on TabsPBP2, the IC50 amounted to 6.22 ± 0.85 µM and the Ki is 4.68 ± 0.66 µM. Moreover, the “behavioral effect on adult T. absoluta” value with adult T. absoluta is on record as “repel”. Besides, the “EAG responses in females” value in the experiment on T. absoluta females is listed as “elicit EAG responses”.
Regarding `C=C1CCC2(C(C)C)CC12` (stereo not shown) [sabinene, Sabinene], at TabsPBP2, the half-maximal inhibitory concentration (IC50) was found to be 13.6 ± 1.85 µM and the inhibition constant Ki is 11.4 ± 1.88 µM.
The matching figures for `CC1=CCC2CC1C2(C)C` (stereo not drawn) [α-pinene, α-Pinene]: 9.98 ± 0.98 µM and 7.48 ± 0.57 µM.
The like results for `CC1=CC=C(C(C)C)CC1` [α-terpinene, α-Terpinene] were, in that order, 14.6 ± 5.16 µM and 10.2 ± 3.6 µM.
